Patent US9518038B2, “Condensation product of theanine derivative and carboxylic acid coumarin derivative, its intermediate, preparation method and use thereof” (SHANDONG YINGDONG YINGHAO BIOTECHNOLOGY, INC., priority 2012, dated 2016)
Marks after values point to notes of the source that are not given here.

Tests used:
p53 = assay: Western Blotting, increase of p53 level; assay type: cell-based; settings: liver cancer cells, Lewis lung cancer cells and other cancer cell lines and tumor tissue protein lysates, 48 h treatment, read-out: Effective concentration to increase p53 by 50%
Text: (§1) Antibodies: primary antibodies of VEGFR, EGFR, c-Met, K-Ras, H-Ras, Akt, NF-κB, Cyclin D1, ER-alpha, Dvl-1, Dvl-2, Dvl-3, MMP-9, MMP2, β-catenin, Bcl-2, Bax, p53, p21, E-cadherin and Caspase3 protein, purchased from American Cell Signaling Technology Company and Santa Cruz Technology Company; and H3 acetylation, H4 acetylation and HDAC (HDAC3, HDAC4 and the like) Antibody Sample Kits, purchased from Cell Signaling Technology Company of the U.S.
(§2) (3) polyacrylamide gel electrophoresis (SDS-PAGE): an equal amount of protein lysate sample was used to separate protein, film transfer, and blocking, treated with appropriate primary antibodies and secondary antibodies in sequence, and the film was washed, then the color was developed with ECL kit, and a blot protein band was detected by exposure of an X-ray film; and a Gel-Pro Analyzer was used for quantitative analysis of gray degree, optical density value of the control group and the drug treatment group in various concentration were respectively compared with that of internal reference, the obtained ratios were respectively compared with the control group, and the protein expression level was semi-quantified.

Dvl-1 = assay: Western Blotting, Dvl-1 level; assay type: cell-based; settings: human liver cancer cells, Lewis lung cancer cells and other cancer cell lines and tumor tissues, read-out: Effective concentration (IC50) for inhibition of Dvl-1
Text: as §1, §2

[1] = system: human liver cancer cells SMMC7721 xenograft; assay: In-vivo growth of SMMC7721 xenografts in nude mice; parameters: species or system BALB/c nude mice; settings: Mus musculus, SMMC-7721, ip, S-7721 xenograft, vs DMSO solvent control, read-out: Curative effect (inhibition rate %) of tumor weight; for inhibition in vivo at 60 mg/kg: 60 mg/kg intraperitoneal once a day; for inhibition in vivo at 90 mg/kg: 90 mg/kg intraperitoneal once a day
Experimental: RPMI1640 and DMEM culture solutions: Hyclone Company; inactivated fetal bovine serum: Hyclone Company, preserved at −20° C.; trypsin: Amersco Company; and 0.4% trypan blue: Sigma Company;
(3) Observation of growth of tumors in nude mice: the activities (including food intake, traits of urine and stool, mental state and the like) of the nude mice and the tumor growth time and growth situation of the transplanted tumors were observed every day, the body weight and the size of the tumors were measured once every 2-3 days. The long diameter a and the short diameter b (mm) of each tumor were measured by a vernier caliper to calculate the volume, wherein the volume V=π1/2·ab^2 (mm^3);
(4) sacrifice of animals: the mice were anesthetized and photoed after treatment experiments; the nude mice were sacrificed by breaking neck, the tumor tissues were stripped under sterile conditions and the weight of the tumors was weighed; and the effects of the drugs on pathology and toxicity of the various organs and tissues were detected.

HDAC4 = HDAC4 enzyme activity in nuclear extracts of LLC tumors of treated mice; settings: LLC tumor grown in vivo; second value of the pair HDAC3 and HDAC4; SAHA 25 mg/kg
Experimental: (§3) For the detection of the effect of the drugs on enzyme activity of EZH2 and HDAC of in-vivo tumors, the tumors were separately excised after 6 h of medication, total proteins and nucleoproteins were extracted separately to detect and analyze the activity of the enzyme.
(§4) (2) 50 μl of diluted sample solution was added into each reaction well, the plate was sealed with a plate-sealing film and reacted at room temperature for 30 min;
(§5) (3) the plate-sealing film was carefully peeled off, the liquid was removed, dried, 150 μl of washing liquid was added into each well, stood for 30 s, then the liquid was removed, repeated twice, and dried;
(§6) (4) 2 μl of HDAC enzyme or tumor tissue nuclear extracts was respectively uniformly mixed with 28 μl of diluted sample solution, added into the wells, the plate was sealed with the plate-sealing film and reacted at 37° C. for 60 min;
(§7) (5) the plate was washed for three times, wherein the operation was the same as that in (3); and a diluted antibody capture working solution was added into each reaction well according to 50 μl/well and reacted on a shaking bed at room temperature for 60 min; […]
(§8) (10) the light absorbance (OD value) of each well was measured in sequence at the wavelength of 450 nm; wherein the measurement should be performed within 15 min after addition of the stop solution; and

EZH2 = target: T1, EZH2 (Mus musculus, UniProt Q61188); assay: EZH2 enzyme activity in protein extracts of LLC tumors of treated mice (EZH2 Assay Kit); settings: LLC tumor grown in vivo; tumors excised 6 h after medication; SAHA 25 mg/kg
T1 construct: the EZH2 enzyme was replaced with tumor protein extracts in each group; from tissue; host or cells: Lewis lung cancer tumours from treated mice

HDAC3 = HDAC3 enzyme activity in nuclear extracts of LLC tumors of treated mice; settings: LLC tumor grown in vivo; first value of the pair HDAC3 and HDAC4; SAHA 25 mg/kg
Experimental: as §3, §4, §5, §6, §7, §8

Dvl-2 = assay: Western Blotting, Dvl-2 level; assay type: cell-based; settings: human liver cancer cells, Lewis lung cancer cells and other cancer cell lines and tumor tissues, read-out: Effective concentration (IC50) for inhibition of Dvl-2
Text: as §1, §2

MMP-2 = assay: Western Blotting, MMP2 level; assay type: cell-based; settings: human liver cancer cells, Lewis lung cancer cells and other cancer cell lines and tumor tissues, read-out: Effective concentration (IC50) for inhibition of MMP2
Text: as §1, §2

MMP-9 = assay: Western Blotting, MMP9 level; assay type: cell-based; settings: human liver cancer cells, Lewis lung cancer cells and other cancer cell lines and tumor tissues, read-out: Effective concentration (IC50) for inhibition of MMP9
Text: as §1, §2

ER-alpha = assay: Western Blotting, ER-alpha level; assay type: cell-based; settings: human liver cancer cells, Lewis lung cancer cells and other cancer cell lines and tumor tissues, read-out: Effective concentration (IC50) for inhibition of ER-alpha
Text: as §1, §2

Dvl-3 = assay: Western Blotting, Dvl-3 level; assay type: cell-based; settings: human liver cancer cells, Lewis lung cancer cells and other cancer cell lines and tumor tissues, read-out: Effective concentration (IC50) for inhibition of DVl-3
Text: as §1, §2

T1 sequence (Q61188 whole entry): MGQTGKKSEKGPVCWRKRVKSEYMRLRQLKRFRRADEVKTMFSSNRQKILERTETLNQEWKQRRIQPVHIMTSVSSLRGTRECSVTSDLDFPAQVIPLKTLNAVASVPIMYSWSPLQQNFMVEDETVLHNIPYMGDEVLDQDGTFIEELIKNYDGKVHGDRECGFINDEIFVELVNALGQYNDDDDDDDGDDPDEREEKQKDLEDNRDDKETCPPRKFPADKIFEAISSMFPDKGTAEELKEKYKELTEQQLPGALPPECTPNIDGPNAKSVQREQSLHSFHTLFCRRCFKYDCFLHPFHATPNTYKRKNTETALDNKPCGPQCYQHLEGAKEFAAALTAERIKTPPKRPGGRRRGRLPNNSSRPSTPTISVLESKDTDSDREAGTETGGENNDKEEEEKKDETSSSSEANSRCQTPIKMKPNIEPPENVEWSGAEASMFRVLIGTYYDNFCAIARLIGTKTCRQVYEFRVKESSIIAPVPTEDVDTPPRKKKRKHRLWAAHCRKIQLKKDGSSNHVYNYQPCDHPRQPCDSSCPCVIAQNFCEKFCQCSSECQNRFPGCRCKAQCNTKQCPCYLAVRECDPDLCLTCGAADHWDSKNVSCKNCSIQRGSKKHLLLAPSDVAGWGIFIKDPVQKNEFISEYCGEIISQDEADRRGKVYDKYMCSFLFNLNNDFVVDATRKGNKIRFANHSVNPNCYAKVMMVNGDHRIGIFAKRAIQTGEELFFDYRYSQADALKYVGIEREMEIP
T1 sequence (Q921E6 whole entry partner): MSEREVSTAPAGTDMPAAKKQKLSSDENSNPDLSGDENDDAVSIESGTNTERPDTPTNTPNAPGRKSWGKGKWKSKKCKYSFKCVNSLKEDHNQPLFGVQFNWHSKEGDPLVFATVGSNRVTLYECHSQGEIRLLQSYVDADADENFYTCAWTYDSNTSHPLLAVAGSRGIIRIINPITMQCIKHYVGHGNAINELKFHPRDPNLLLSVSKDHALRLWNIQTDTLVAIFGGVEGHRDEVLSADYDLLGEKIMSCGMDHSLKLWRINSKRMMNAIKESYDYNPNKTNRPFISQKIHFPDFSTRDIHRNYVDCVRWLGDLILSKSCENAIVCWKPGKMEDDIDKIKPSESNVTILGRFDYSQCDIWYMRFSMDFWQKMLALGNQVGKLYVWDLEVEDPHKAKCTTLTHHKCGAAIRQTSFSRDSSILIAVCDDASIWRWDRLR
T1 sequence (Q80U70 whole entry partner): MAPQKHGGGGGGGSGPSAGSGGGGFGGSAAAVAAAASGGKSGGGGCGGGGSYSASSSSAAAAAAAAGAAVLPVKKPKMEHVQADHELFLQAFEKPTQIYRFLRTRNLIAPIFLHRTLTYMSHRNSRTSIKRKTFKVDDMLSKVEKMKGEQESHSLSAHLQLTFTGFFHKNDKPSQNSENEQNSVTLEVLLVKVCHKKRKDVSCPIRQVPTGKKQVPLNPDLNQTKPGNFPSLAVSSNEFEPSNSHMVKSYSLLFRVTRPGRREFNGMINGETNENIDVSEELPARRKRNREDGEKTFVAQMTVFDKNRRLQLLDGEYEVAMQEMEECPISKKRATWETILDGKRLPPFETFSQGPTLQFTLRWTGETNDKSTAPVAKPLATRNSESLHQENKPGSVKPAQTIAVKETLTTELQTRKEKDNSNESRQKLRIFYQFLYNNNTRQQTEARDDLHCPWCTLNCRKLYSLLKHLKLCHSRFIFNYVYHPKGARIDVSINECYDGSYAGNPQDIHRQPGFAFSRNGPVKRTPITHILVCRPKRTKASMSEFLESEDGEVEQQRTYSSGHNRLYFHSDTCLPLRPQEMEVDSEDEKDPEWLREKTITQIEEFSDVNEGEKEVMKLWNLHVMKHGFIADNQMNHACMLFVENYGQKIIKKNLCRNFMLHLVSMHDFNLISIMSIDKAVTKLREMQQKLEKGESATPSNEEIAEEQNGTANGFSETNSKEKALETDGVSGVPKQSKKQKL

Compound	EC50 (p53) [µM]	IC50 (Dvl-1) [µM]	inhibition in vivo at 60 mg/kg [1] [%]	inhibition in vivo at 90 mg/kg [1] [%]	decrease of HDAC4 enzyme activity/inhibition rate (HDAC4)	decrease of EZH2 enzyme activity/inhibition rate (EZH2)	decrease of HDAC3 enzyme activity/inhibition rate (HDAC3) [%* and]	IC50 (Dvl-2) [µM]	IC50 (MMP-2) [µM]	IC50 (MMP-9) [µM]	IC50 (ER-alpha) [µM]	IC50 (Dvl-3) [µM]
CCNC(=O)CCC(NC(=O)c1cc2cc(F)ccc2oc1=O)C(=O)OCC (stereo in doubt) [Compound Ie, (R)-2-(6-F-2-oxo-2H-benzopyran-3-carboxamido)-5-ethylamino-5-oxo-pentanoic acid ethyl ester]	< 100	< 150	64.8	69.9								
CCNC(=O)CCC(NC(=O)c1cc2cc([N+](=O)[O-])ccc2oc1=O)C(=O)OCC (stereo in doubt) [Compound If, (R)-2-(6-nitro-2-oxo-2H-benzopyran-3-carboxamido)-5-ethylamino-5-oxo-pentanoic acid ethyl ester]	< 65	< 200	65.7	75.7								
CCNC(=O)CC[C@H](N)C(=O)OC [Compound IIa, theanine methyl ester]			36.6	38.2								
CCNC(=O)CC[C@H](N)C(=O)OCC [Compound IIb, theanine ethyl ester]			44.6	46.8								
CCNC(=O)CCC(NC(=O)c1cc2ccccc2oc1=O)C(=O)OC (stereo not shown) [Compound Ia, methyl 5-ethylamino-5-oxo-2-(2-oxo-2H-benzopyran-3-carboxamido)pentanoate]	< 125	< 135	52.7	61.9	52%*(LLC)-	52%(LLC)-	55					
CCNC(=O)CCC(NC(=O)c1cc2ccccc2oc1=O)C(=O)OCC (stereo not shown) [Compound Ib, ethyl 5-ethylamino-5-oxo-2-(2-oxo-2H-benzopyran-3-carboxamido)pentanoate]	< 120	< 300	60.8	66.6								
CCNC(=O)CC[C@@H](NC(=O)c1cc2cc(Cl)ccc2oc1=O)C(=O)OCC [Compound Ic, (R)-2-(6-CI-2-oxo-2H-benzopyran-3-carboxamido)-5-ethylamino-5-oxo-pentanoic acid ethyl ester]	< 100	< 250	63.2	69.2								
CCNC(=O)CC[C@@H](NC(=O)c1cc2cc(Br)ccc2oc1=O)C(=O)OCC [Compound Id, (R)-2-(6-Br-2-oxo-2H-benzopyran-3-carboxamido)-5-ethylamino-5-oxo-pentanoic acid ethyl ester]	< 100	< 250	67.2	75.7								
CCNC(=O)CC[C@@H](NC(=O)c1cc2cc(Cl)cc(Cl)c2oc1=O)C(=O)OCC [Compound Ig, (R)-2-(6,8-dichloro-2-oxo-2H-benzopyran-3-carboxamido)-5-ethylamino-5-oxo-pentanoic ethyl ester]	< 70	< 125	53.6	70.6				< 100	< 50	< 65	< 100	< 100
CCNC(=O)CC[C@@H](NC(=O)c1cc2cc(Br)cc(Br)c2oc1=O)C(=O)OCC [Compound Ih, (R)-2-(6,8-dibromo-2-oxo-2H-benzopyran-3-carboxamido)-5-ethylamino-5-oxo-pentanoic ethyl ester]	< 70	< 250	57.7	78.7				< 100	< 50	< 65	< 100	< 100
